Legend:
[1] = system: non-centrosome amplified DLD1 (4N) cells; experiment: Multipolar spindle assay (4N cell line); assay type: cell-based, human; details: for % Multipolarity above baseline @ 15 mM (4N cells): supplementary CSV; for % multipolarity above baseline @ 15 μM (4N cells): 4N DLD1 cells (Table 4)
Outline: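 4NCA cells came from 2N DLD1 treated 24 h with 2 μΜ DCB then released 24 h; 4N DLD1 used directly. After 3.5 h arrest with 8 μM pro-TAME, compounds were added with 8 μM MG-132; fixed cells stained for aurora A, pHH3 and DAPI, imaged, and percentage multipolar (>2 poles) mitoses scored.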

[2] = system: DLD1 cells (4NCA and 4N); assay type: cell-based; details: human
Experimental: Inhibition of HSET-mediated clustering was measured using a phenotypic assay measuring the formation of multipolar metaphase spindles in DLD1 cells with (4NCA) or without (4N) centrosome amplification. 4NCA cells were generated by treating 2N DLD1 cells with 2 μΜ DCB for 24 h, washed, and released in growth media for 24 h. 4N and 4NCA DLD1 cells were plated in 96-well ibidi μ-Clear plates (IB-89626, ibidi) with a no. 1.5 polymer coverslip bottom with optimal imaging properties. To enrich the mitotic population, cells were first treated for 3.5 h with 8 μM pro-TAME (I-440-01M, R&D system), an inhibitor of APC/C that transiently arrests cells in metaphase without affecting the structure of the spindle. Following the initial arrest, cells were treated with HSET compounds in the presence of 8 μM MG-132 (S2619, SelleckChem), a proteasome inhibitor that helps to maintain the metaphase arrest, where the number of spindle poles/cell can be optimally quantified by an automated segmentation analysis.
Cells were then fixed in methanol and stained for 3 h for mitotic pole marker aurora A (1:1000 610939 mouse anti-IAK1, BD Biosciences) and phosphorylated histone H3 (1:1500 ab47297 anti-histone H3 pS10, Abcam) as a marker of mitotic cells in 1.5% FBS in PBS. Following primary antibody treatment, cells were incubated with secondary antibodies Alexa Fluor 488 goat antimouse and Alexa Fluor 555 goat antirabbit (1:1500, A11029 and A21429, respectively, Life Technologies) together with 1 μg/mL DAPI (D9542, Sigma) in 1.5% FBS in PBS. Image acquisition was performed at 10× using the GE INCELL 2200 High Content Imaging System (Cytiva) and analyzed using the InCell Investigator software. Mitotic cells were identified by high pHH3 staining and were scored as multipolar if they had more than two mitotic spindle poles. The percentage of multipolar mitoses was calculated by dividing the number of multipolar mitoses by the total of all visible mitoses in one well of a 96-well plate (n > 100 for each replicate, two replicates per concentration point).
3. […]

| SMILES | % Multipolarity above baseline @ 15 mM (4N cells) ([1]; 15 μM) [%] | effect on multipolar mitoses (4N), in words ([1]; 15 μM, non-centrosome amplified DLD1 (4N) cell line) | % multipolarity above baseline @ 15 μM (4N cells) [1] [%] | concentration at which cellular toxicity observed [2] [µM] |
| --- | --- | --- | --- | --- |
| CCCOC(=O)c1sc(NC(=O)CCNC(=O)c2cccc(-c3noc(C)n3)c2)nc1C [Compound 32, Propyl 4-Methyl-2-(3-(3-(5-methyl-1,2,4-oxadiazol-3-yl)benzamido)propanamido)thiazole-5-carboxylate] | 2 | minimal effect | 2 | > 15 |
| CCCOC(=O)c1sc(NC(=O)C[C@H](CCCNC)NC(=O)c2cccc(-c3noc(C)n3)c2)nc1C [Compound 35, Propyl (S)-4-Methyl-2-(3-(3-(5-methyl-1,2,4-oxadiazol-3-yl)benzamido)-6-(methylamino)hexanamido)thiazole-5-carboxylate] | 1 | – | 1 | 60 |
| CCCOC(=O)c1sc(NC(=O)C[C@H](CCCN(C)C)NC(=O)c2cccc(-c3noc(C)n3)c2)nc1C [Compound 36, Propyl (S)-2-(6-(Dimethylamino)-3-(3-(5-methyl-1,2,4-oxadiazol-3-yl)benzamido)hexanamido)-4-methylthiazole-5-carboxylate] | 1 | – | 1 | – |

— article PMC9969401, “Discovery of 2-(3-Benzamidopropanamido)thiazole-5-carboxylate Inhibitors of the Kinesin HSET (KIFC1) and the Development of Cellular Target Engagement Probes” (Journal of Medicinal Chemistry, 2023)
